This is an account of results in ChEMBL document CHEMBL1133405, “Design and synthesis of functionalized glycomers as non-peptidic ligands for SH2 binding and as inhibitors of A-431 human epidermoid and HT-29 colon carcinoma cell lines” (Bioorg Med Chem Lett, 2000).

One assay deals with HT-29. Put plainly: Cytotoxicity of compound was measured for the growth inhibition of HT-29 human colon carcinoma cell line. Type of assay: functional, cell-based.
For a further assay, the system named is A-431. The experiment in a line: Cytotoxicity measured for the growth inhibition of A-431 Human epidermoid carcinoma cell line. Type of assay: functional, cell-based.
The target in assay [1] is Growth factor receptor-bound protein 2 (Homo sapiens) (UniProt P62993). The experiment in a line: Compound was evaluated for the inhibitory activity against Growth factor receptor bound protein 2 SH2 at a concentration of 100 uM.
Growth factor receptor-bound protein 2 (Homo sapiens), sequence (P62993 whole entry, looked up): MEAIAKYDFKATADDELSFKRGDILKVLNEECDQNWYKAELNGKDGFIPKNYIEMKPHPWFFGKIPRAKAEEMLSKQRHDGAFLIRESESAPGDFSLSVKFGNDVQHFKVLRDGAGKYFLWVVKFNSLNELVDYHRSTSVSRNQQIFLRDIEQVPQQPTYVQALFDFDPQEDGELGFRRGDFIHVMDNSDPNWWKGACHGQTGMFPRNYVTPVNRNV

For `C=CCO[C@H]1[C@H](O)[C@H](COS(=O)(=O)c2cccc(C(F)(F)F)c2)O[C@@H](Oc2ccc(I)cc2)[C@H]1OC(C)=O`, the IC50 worked out at 23.1 µM in the assay with HT-29 and 6.1 µM in the assay on A-431.

`CCCO[C@H]1[C@H](O)[C@H](COS(=O)(=O)c2cccc(C(F)(F)F)c2)O[C@@H](Oc2ccc(OP(=O)(O)O)cc2)[C@H]1OC(C)=O` [GLYCOMER]: the IC50 turned out to be 35.5 µM in the assay with HT-29 and 38.8 µM in the assay with A-431.

For `C=CCO[C@@H]1[C@H](O)[C@H](Oc2ccc(I)cc2)O[C@@H](COS(=O)(=O)c2cccc(C(F)(F)F)c2)[C@H]1O`, the IC50 with HT-29 was found to be 35.5 µM; in the assay on A-431 it was 36.8 µM.

`C=CCO[C@@H]1[C@H](O)[C@H](Oc2ccc(I)cc2)O[C@@H](COS(=O)(=O)c2ccc3ccccc3c2)[C@H]1O`: the IC50 with A-431 amounted to 8.81 µM.

For the compound `C=CCO[C@@H]1[C@H](O)[C@H](Oc2ccc(I)cc2)O[C@@H](COC(=O)c2ccc(OC)cc2)[C@H]1O`, the IC50 in the assay with HT-29 stood at 55.1 µM; in the assay on A-431, 24.6 µM.

As for `C=CCO[C@@H]1[C@H](O)[C@H](Oc2ccc(I)cc2)O[C@@H](COC(=O)c2ccc(Cl)cc2)[C@H]1O`, the IC50 in the assay with HT-29 turned out to be 25.2 µM; with A-431, 20.5 µM.

With `C=CCO[C@H]1[C@H](O)[C@H](COS(=O)(=O)c2cccc(C(F)(F)F)c2)O[C@@H](Oc2ccc(I)cc2)[C@H]1OC(=O)Cc1ccccc1`, the IC50 was 4.95 µM in the assay on HT-29 and 5.15 µM with A-431.

For `C=CCO[C@H]1[C@H](O)[C@H](COS(=O)(=O)c2ccc3ccccc3c2)O[C@@H](Oc2ccc(I)cc2)[C@H]1OC(C)=O`, the IC50 with HT-29 came out at 11.6 µM; in the assay on A-431, 5.2 µM.

Turning to `C=CCO[C@H]1[C@H](O)[C@H](COS(=O)(=O)c2cccc(C(F)(F)F)c2)O[C@@H](Oc2ccc(I)cc2)[C@H]1OC(=O)CCc1ccccc1`, the figures for the IC50 in the assay with HT-29 and with A-431 were 3 µM and 2 µM, respectively.

`C=CCO[C@H]1[C@H](O)[C@H](COS(=O)(=O)c2cccs2)O[C@@H](Oc2ccc(I)cc2)[C@H]1OC(C)=O`: the IC50 in the assay on A-431 was found to be 12.8 µM. The same compound gave an inhibition in assay [1] of 30%.

`C=CCO[C@@H]1[C@H](O)[C@H](Oc2ccc(I)cc2)O[C@@H](COC(=O)c2ccc3ccccc3c2)[C@H]1O`: the IC50 with HT-29 and with A-431 was over 50 µM throughout.

Take `NC(=O)OCCO[C@@H]1[C@H](O)[C@H](Oc2ccc(I)cc2)O[C@@H](COS(=O)(=O)c2ccc3ccccc3c2)[C@H]1O`: the IC50 in the assay with HT-29 was found to be 23.1 µM; with A-431, 9.1 µM.

As for `C=CCO[C@H]1[C@H](O)[C@H](COS(=O)(=O)c2cccc(C(F)(F)F)c2)O[C@@H](Oc2ccc(I)cc2)[C@H]1OC(=O)c1ccccc1`, the IC50 was found to be 7.5 µM in the assay with HT-29 and 7 µM with A-431.

With `CCCO[C@H]1[C@H](O)[C@H](COS(=O)(=O)c2ccc3ccccc3c2)O[C@@H](Oc2ccc(OP(=O)(O)O)cc2)[C@H]1OC(C)=O` [GLYCOMER], the IC50 in the assay on HT-29 and in the assay on A-431 was over 50 µM in each case.

On to `C=CCO[C@H]1[C@H](O)[C@H](COS(=O)(=O)c2cccc(C(F)(F)F)c2)O[C@H](Oc2ccc(I)cc2)[C@@H]1OC(=O)CCC`, for which the IC50 is 4 µM with HT-29 and 2.6 µM in the assay with A-431.

As to `O=C(CCc1ccccc1)O[C@@H]1[C@H](Oc2ccc(I)cc2)O[C@@H](COS(=O)(=O)c2cccc(C(F)(F)F)c2)[C@@H](O)[C@@H]1OCCOC(=O)Nc1ccccc1`, the values for the IC50 in the assay on HT-29 and with A-431 were 7.15 µM and 4.52 µM, respectively. The compound further showed an inhibition in assay [1] of 30%.

For `C=CCO[C@@H]1[C@H](O)[C@H](Oc2ccc(I)cc2)O[C@@H](COC(=O)c2ccccc2)[C@H]1O`, the IC50 in the assay on HT-29 and in the assay with A-431 was over 50 µM in each case.

As for `C=CCO[C@H]1[C@@H](O)[C@H](COS(=O)(=O)c2cccc(C(F)(F)F)c2)O[C@@H](Oc2ccc(I)cc2)[C@H]1OC(=O)C(C)C`, the IC50 in the assay with HT-29 turned out to be 4.2 µM; in the assay on A-431, 3.3 µM. In assay [1], this compound registered an inhibition of 30%.

As to `C=CCO[C@H]1[C@H](O)[C@H](COS(=O)(=O)c2cccc(C(F)(F)F)c2)O[C@@H](Oc2ccc(I)cc2)[C@H]1OC(=O)CC`, the IC50 in the assay with HT-29 amounted to 4.65 µM; in the assay with A-431, 2.17 µM.

Regarding `C=CCO[C@@H]1[C@H](O)[C@H](Oc2ccc(I)cc2)O[C@@H](COCc2ccc(OC)cc2)[C@H]1O`, the IC50 in the assay with HT-29 was 19.7 µM; in the assay on A-431, 10.6 µM.

Consider `O=C(Nc1ccccc1)OCCO[C@@H]1[C@H](O)[C@H](Oc2ccc(I)cc2)O[C@@H](COS(=O)(=O)c2ccc3ccccc3c2)[C@H]1O`, for which the IC50 turned out to be 3.67 µM with HT-29 and 5.1 µM in the assay with A-431.

As for `C=CCO[C@H]1[C@H](O)[C@H](COS(=O)(=O)c2ccc(Cl)cc2)O[C@@H](Oc2ccc(I)cc2)[C@H]1OC(C)=O`, the IC50 in the assay with A-431 came out at 9.77 µM.
